These results are taken from patent publication EP1718623B1, “COMPOUNDS AS INHIBITORS OF CELL PROLIFERATION AND VIRAL INFECTIONS” (4SC AG, priority 2004, dated 2005).

Bounds are passed on as bounds.

One experiment addresses Kv1.3 (Homo sapiens, UniProt P22001). The conditions noted are these: blocks Kv1.3 currents; Kath JC et al. 1997; cited from earlier work.
For a further experiment, the system named is T-lymphocyte. The conditions noted are these: inhibits T-lymphocyte proliferation; Kath JC et al. 1997; cited from earlier work.
Experiment [1] concerns peripheral blood monocyte (PBMC). In words: T Lymphocyte Proliferation Assay (PHA-stimulated PBMC, BrdU incorporation ELISA). The experiment is classed as cell-based. The conditions noted are these: Homo sapiens, PBMCs stimulated with 2 µg/ml phytohemoagglutinin, 72 h. On the procedure: We used a nonradioactive technique for the measurement of in vitro T-cell proliferation (Messele T et al. Clinical and Diagnostic Laboratory Immunology,687-692,2002).
Peripheral blood mononuclear cells (PBMCs) were isolated from human blood obtained from volunteer donators. PBMCs were isolated by centrifugation in ACCUSPIN tubes using HISTOPAQUE.
PBMCs were stimulated with PHA and cell proliferation was measured with a Roche colorimetric BromUridin incorporation ELISA kit.
Inhibition of stimulated peripheral blood monocyte (PBMC) stimulation
PBMCs were isolated from the blood of healthy volunteers with the help of ACCUSPIN™ System Histopaque®-1077 tubes, washed and resuspended with 10^6 cells/ml in Dulbecco's modified eagles medium, containing 10 % fetal calf serum and 2 mM Glutamine.
The cells were stimulated with 2 µg/ml phytohemoagglutinin in the presence of test compound or blank vehicle for 72 h. 4 h prior to the end of the incubation period, 5-bromo-2'-desoxyuridine (BrdU) was added to label the proliferating cells. After the incubation, the cells were separated by centrifugation and the culture supernatant removed. Incorporated BrdU was quantified with the help of an enzyme-linked immunosorbent assay.
For the determination of the IC50 values (concentration of inhibitor required for 50% inhibition) at least four different inhibitor concentrations were applied. […]
(In general: Dividing cells build labelled thymidine or BrdU into new DNA.)

The next experiment has as its target T1, 20S proteasome (Homo sapiens, UniProt P28074).
T1 construct: purchased Immatics, Tübingen
The experiment can be described thus: Proteasome assay (chymotryptic activity, Suc-LLVT-AMC substrate). In kind it is biochemical. The following applies: 30°C, 20 min. The text has this: Regulation of the immune response is controlled by a variety of signalling pathways such as T-cell or TNF receptor signalling (Chen G et al. Scienc,296 1634-1640,2002). To further characterize targets of compounds which we found active in the T-cell proliferation assay, we tested the compounds on a variety of targets involved in such pathways. Compounds described here are inhibitors of T-lymphocyte proliferation were active on three molecular targets: Kv1.3 ion channels and Inosine Monophosphate Dehydrogenase (IMPDH) and the human proteasome. The compounds described may act on one of these targets specifically or on several targets simultaneously.
The chymotryptic activity of the 20S proteasome (Immatics, Tübingen) was determined using a Tecan Ultra plate reader and Suc-LLVT-AMC as substrate (Bachem). […]

A further experiment has as its target T2, Kv1.3 channels (Mus musculus, UniProt P16390).
T2 construct: expressed in transfected cells; host or cells: L929 cells
The experiment can be described thus: Kv1.3 assay, whole-cell patch-clamp in stable transfected L929 cells. In kind it is cell-based. The conditions noted are these: c=20 µM; each compound tested on two different cells; steady-state current. On the procedure: The inhibition of Kv1.3 was measured in stable transfected cell lines expressing mouse Kv1.3 using the patch-clamp technique (Rauer H et al. J Biol Chem Vol.275, No. 2, 1201-1208, 2000), Rauer H Mol Pharmacol,50, 1625-1634, 1996, Rauer H et al. J Pharmacol, 127, 1065-1074, 1999).
Stable transfected L929 cells with Kv1.3 channels were grown in DMEM (Glutamax-I) media with 10% FCS, geneticin 330 µg/ml under 10% CO2 atmosphere.
Whole-cell patch-clamp configuration, with an external bath solution of 160 mM NaCl, 4,5 mM KCl, 1 mM MgCl, 2 mM CaCl2,5 mM HEPES, 10 mM EGTA and NaOH adjusted to pH 7. 4. Internal pipette solution for recording was 155 mM KF, 2 mM MgCl2 , 10 mM HEPES, 10 mM EGTA with KOH adjusted to pH 7.2. Currents were activated by a 200-ms voltage step from a holding potential of -80 to 40 mV every 30 s. Holding potential -80 mV.
Each compound was tested on two different cells. The cell was perfused with external bath solution (black line), then the compound was applied (c=20 µM). The resulting stedy-state current traces are shown as red lines. Example 3, 5, 6, 7, 8 are blockers.
(In general: Patch clamp records ionic current or voltage across a cell membrane.)

A word on the IC50: it is the concentration at which inhibition is half-maximal.

Kv1.3, sequence (P22001 whole entry): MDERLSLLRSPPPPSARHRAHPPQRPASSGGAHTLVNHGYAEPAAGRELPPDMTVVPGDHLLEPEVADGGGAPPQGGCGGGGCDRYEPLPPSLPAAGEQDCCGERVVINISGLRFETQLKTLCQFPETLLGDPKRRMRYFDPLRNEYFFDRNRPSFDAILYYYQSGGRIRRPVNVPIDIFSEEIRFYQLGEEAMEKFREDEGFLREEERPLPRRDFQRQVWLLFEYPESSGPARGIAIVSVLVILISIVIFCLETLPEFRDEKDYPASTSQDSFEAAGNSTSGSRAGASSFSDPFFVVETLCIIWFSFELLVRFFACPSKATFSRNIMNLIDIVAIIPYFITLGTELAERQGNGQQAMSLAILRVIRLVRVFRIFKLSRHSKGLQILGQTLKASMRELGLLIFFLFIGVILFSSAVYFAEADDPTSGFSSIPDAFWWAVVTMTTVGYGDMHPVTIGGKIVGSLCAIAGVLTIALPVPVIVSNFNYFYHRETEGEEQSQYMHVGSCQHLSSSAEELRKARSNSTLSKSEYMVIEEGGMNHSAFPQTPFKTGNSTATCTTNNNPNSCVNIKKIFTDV
T2 sequence (P16390 whole entry): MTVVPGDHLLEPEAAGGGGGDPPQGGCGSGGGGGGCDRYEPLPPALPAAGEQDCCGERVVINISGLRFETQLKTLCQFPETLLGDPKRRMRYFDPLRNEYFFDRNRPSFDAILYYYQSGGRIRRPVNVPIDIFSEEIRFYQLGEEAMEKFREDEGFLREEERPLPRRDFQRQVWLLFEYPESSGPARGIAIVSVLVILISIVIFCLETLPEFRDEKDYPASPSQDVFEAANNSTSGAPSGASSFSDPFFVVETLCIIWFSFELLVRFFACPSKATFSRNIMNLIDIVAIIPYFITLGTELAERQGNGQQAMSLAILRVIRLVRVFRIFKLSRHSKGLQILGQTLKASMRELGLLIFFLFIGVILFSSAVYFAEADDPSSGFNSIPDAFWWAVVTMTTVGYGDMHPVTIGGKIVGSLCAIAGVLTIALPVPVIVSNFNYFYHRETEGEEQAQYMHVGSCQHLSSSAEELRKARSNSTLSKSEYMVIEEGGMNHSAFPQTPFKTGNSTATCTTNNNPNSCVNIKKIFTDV

Consider “noxiustoxin (TIINVKCTSPKQCSKPCKELYGSSAGAKCMNGKCKCYNN; UniProt P08815 1-39, looked up)”, for which the IC50 in the experiment with Kv1.3 was 0.2 nM; with T-lymphocyte, 8 nM.
`O=C(Nc1ccc(S(=O)(=O)NCc2cc(F)c(F)c(F)c2)cc1)Nc1cccc(C2=N[C@@H](Cc3ccccc3)CO2)c1` [Example 22, 4-{3-[3-(4-(S)-Benzyl-4,5-dihydro-oxazol-2-yl)-phenyl]-ureido}-N-(3,4,5-trifluorobenzyl)-benzenesulfonamide]: the IC50 in experiment [1] is under 5 µM.
Turning to `O=C(Nc1ccc(C2=N[C@H](c3ccccc3)CO2)cc1)Nc1ccc(S(=O)(=O)NCc2cc(F)c(F)c(F)c2)cc1` [Example 1, 4-{3-[4-(4-(R)-Phenyl-4,5-dihydro-oxazol-2-yl)-phenyl]-ureido}-N-(3,4,5-trifluorobenzyl)-benzenesulfonamide], the IC50 (in experiment [1]; at 20S proteasome) was under 5 µM throughout.
`O=C(Nc1ccc(C2=N[C@H](Cc3ccccc3)CO2)cc1)Nc1ccc(S(=O)(=O)NCc2cc(F)c(F)c(F)c2)cc1` [Example 3, 4-{3-[4-(4-(R)-Benzyl-4,5-dihydro-oxazol-2-yl)-phenyl]- -ureido}-N-(3,4,5-trifluorobenzyl)-benzenesulfonamide]: the Kv1.3 block entry at Kv1.3 channels is on record as “blockers”.
